Data reported in ChEMBL document CHEMBL3045393, “Aryldiones incorporating a [1,4,5]oxadiazepane ring. Part I: Discovery of the novel cereal herbicide pinoxaden” (Bioorg Med Chem, 2009).

Assays:
Alopecurus myosuroides [1] = experiment: Post-emergence herbicidal activity against Alopecurus myosuroides at 30 g a.i./ha measured after 21 days in presence of 1% Merge adjuvant; type: functional
Setaria faberi [2] = experiment: Post-emergence herbicidal activity against Setaria faberi (Giant Foxtail) at 30 g a.i./ha measured after 21 days in presence of 1% Merge adjuvant; type: functional
Lolium perenne [3] = experiment: Post-emergence herbicidal activity against Lolium perenne (perennial ryegrass) at 30 g a.i./ha measured after 21 days in presence of 1% Merge adjuvant; type: functional
Hordeum vulgare [4] = experiment: Phytotoxicity against Hordeum vulgare (barley) at 30 g a.i./ha applied post-emergence measured after 21 days in presence of 1% Merge adjuvant; type: organism-based; conditions: in vivo, other, 504 h
Avena fatua [5] = experiment: Post-emergence herbicidal activity against Avena fatua at 30 g a.i./ha measured after 21 days in presence of 1% Merge adjuvant; type: functional
[6] = Half life of hydrolysis at pH 7 at 50 degC; type: ADME; conditions: buffer
Triticum aestivum [7] = experiment: Phytotoxicity against Triticum aestivum (wheat) at 30 g a.i./ha applied post-emergence measured after 21 days in presence of 1% Merge adjuvant; type: organism-based; conditions: in vivo, other, 504 h
Lolium rigidum [8] = experiment: Post-emergence herbicidal activity against Lolium rigidum at 30 g a.i./ha measured after 20 days in presence of cloquintocet-mexyl; type: functional
Triticum aestivum [9] = experiment: Phytotoxicity against Triticum aestivum cv. Arina (wheat) at 60 g a.i./ha applied post-emergence measured after 12 days; type: functional
Triticum aestivum [10] = experiment: Phytotoxicity against Triticum aestivum cv. Remia (wheat) at 60 g a.i./ha applied post-emergence measured after 12 days in presence of cloquintocet-mexyl; type: functional
Avena fatua [11] = experiment: Post-emergence herbicidal activity against Avena fatua at 30 g a.i./ha measured after 20 days in presence of cloquintocet-mexyl; type: functional
Triticum aestivum [12] = experiment: Phytotoxicity against Triticum aestivum cv. Remia (wheat) at 60 g a.i./ha applied post-emergence measured after 12 days; type: functional
Hordeum vulgare [13] = experiment: Phytotoxicity against Hordeum vulgare cv. Fanfare (barley) at 60 g a.i./ha applied post-emergence measured after 12 days; type: functional
Avena fatua [14] = experiment: Post-emergence herbicidal activity against Avena fatua at 30 g a.i./ha measured after 20 days; type: functional
Lolium rigidum [15] = experiment: Post-emergence herbicidal activity against Lolium rigidum at 30 g a.i./ha measured after 20 days; type: functional
Triticum aestivum [16] = experiment: Phytotoxicity against Triticum aestivum cv. Arina (wheat) at 60 g a.i./ha applied post-emergence measured after 12 days in presence of cloquintocet-mexyl; type: functional
Hordeum vulgare [17] = experiment: Phytotoxicity against Hordeum vulgare cv. Fanfare (barley) at 60 g a.i./ha applied post-emergence measured after 12 days in presence of cloquintocet-mexyl; type: functional
Hordeum vulgare [18] = experiment: Phytotoxicity against Hordeum vulgare (barley) at 500 g a.i./ha applied post-emergence measured after 15 days; type: organism-based; conditions: in vivo, other, 360 h
Alopecurus myosuroides [19] = experiment: Post-emergence herbicidal activity against Alopecurus myosuroides at 500 g a.i./ha measured after 15 days; type: functional
Hordeum vulgare [20] = experiment: Phytotoxicity against Hordeum vulgare (barley) at 125 g a.i./ha applied post-emergence measured after 21 days; type: organism-based; conditions: in vivo, other, 504 h
Lolium perenne [21] = experiment: Post-emergence herbicidal activity against Lolium perenne (perennial ryegrass) at 500 g a.i./ha measured after 15 days; type: functional
Avena fatua [22] = experiment: Post-emergence herbicidal activity against Avena fatua at 125 g a.i./ha measured after 21 days; type: functional
Triticum aestivum [23] = experiment: Phytotoxicity against Triticum aestivum (wheat) at 125 g a.i./ha applied post-emergence measured after 21 days; type: organism-based; conditions: in vivo, other, 504 h
Lolium perenne [24] = experiment: Post-emergence herbicidal activity against Lolium perenne (perennial ryegrass) at 125 g a.i./ha measured after 21 days; type: functional
Alopecurus myosuroides [25] = experiment: Post-emergence herbicidal activity against Alopecurus myosuroides at 125 g a.i./ha measured after 21 days; type: functional
Triticum aestivum [26] = experiment: Phytotoxicity against Triticum aestivum (wheat) at 500 g a.i./ha applied post-emergence measured after 15 days; type: organism-based; conditions: in vivo, other, 360 h
Avena fatua [27] = experiment: Post-emergence herbicidal activity against Avena fatua at 500 g a.i./ha measured after 15 days; type: functional
Lolium perenne [28] = experiment: Post-emergence herbicidal activity against Lolium perenne (perennial ryegrass) at 500 g a.i./ha after 21 days; type: functional
Setaria faberi [29] = experiment: Post-emergence herbicidal activity against Setaria faberi (Giant Foxtail) at 2000 g a.i./ha after 21 days; type: functional
Setaria faberi [30] = experiment: Post-emergence herbicidal activity against Setaria faberi (Giant Foxtail) at 500 g a.i./ha after 21 days; type: functional
Avena fatua [31] = experiment: Post-emergence herbicidal activity against Avena fatua at 2000 g a.i./ha after 21 days; type: functional
Avena fatua [32] = experiment: Post-emergence herbicidal activity against Avena fatua at 500 g a.i./ha after 21 days; type: functional
Lolium perenne [33] = experiment: Post-emergence herbicidal activity against Lolium perenne (perennial ryegrass) at 2000 g a.i./ha after 21 days; type: functional

SMILES	Activity (Alopecurus myosuroides [1]) [%]	Activity (Setaria faberi [2]) [%]	Activity (Lolium perenne [3]) [%]	Activity (Hordeum vulgare [4]) [%]	Activity (Avena fatua [5]) [%]	Activity (Triticum aestivum [7]) [%]	also measured
CCCCCCCS(=O)(=O)Oc1c(-c2c(CC)cc(C)cc2CC)c(=O)n2n1CCOCC2	80	90	100	0	100	20	half-life [6]: 3 h
CCc1cc(C)cc(CC)c1-c1c(OC(=O)C(C)(C)C)n2n(c1=O)CCOCC2 [PINOXADEN]	100	90	100	0	100	10	Activity (Lolium rigidum [8]): 95%; Activity (Triticum aestivum [9]): 30%; Activity (Triticum aestivum [10]): 0%; Activity (Avena fatua [11]): 90%; Activity (Triticum aestivum [12]): 30%; Activity (Hordeum vulgare [13]): 20%; Activity (Avena fatua [14]): 90%; Activity (Lolium rigidum [15]): 90%; half-life [6]: 20.6 h; Activity (Triticum aestivum [16]): 0%; Activity (Hordeum vulgare [17]): 0%
CCc1cc(C)cc(CC)c1-c1c(OS(=O)(=O)N(C)C)n2n(c1=O)CCOCC2	0	20	50	0	10	0	
CCc1cc(C)cc(CC)c1-c1c(OC(=O)OC(C)C)n2n(c1=O)CCOCC2	80	100	100	0	90	0	
Cc1cc(C)c(C2C(=O)N3CCCCN3C2=O)c(C)c1 [CGA-271312]							Activity (Hordeum vulgare [18]): 90%; Activity (Alopecurus myosuroides [19]): 60%; Activity (Hordeum vulgare [20]): 40%; Activity (Lolium perenne [21]): 90%; Activity (Avena fatua [22]): 50%; Activity (Triticum aestivum [23]): 0%; Activity (Lolium perenne [24]): 40%; Activity (Alopecurus myosuroides [25]): 40%; Activity (Triticum aestivum [26]): 60%; Activity (Avena fatua [27]): 90%
Cc1cc(C)c(C2C(=O)N3CC[S+]([O-])CCN3C2=O)c(C)c1							Activity (Lolium perenne [28]): 40%; Activity (Setaria faberi [29]): 90%; Activity (Setaria faberi [30]): 60%; Activity (Avena fatua [31]): 80%; Activity (Avena fatua [32]): 40%; Activity (Lolium perenne [33]): 80%
CCOc1c(-c2c(CC)cc(C)cc2CC)c(=O)n2n1CCOCC2	0	0	20	0	0	0	
Cc1cc(C)c(-c2c(OC(=O)C(C)(C)C)n3n(c2=O)CCS(=O)(=O)CC3)c(C)c1							Activity (Lolium perenne [28]): 10%; Activity (Setaria faberi [29]): 50%; Activity (Setaria faberi [30]): 10%; Activity (Avena fatua [31]): 80%; Activity (Avena fatua [32]): 20%; Activity (Lolium perenne [33]): 50%
CCc1cc(C)cc(CC)c1-c1c(OCOC(=O)C(C)(C)C)n2n(c1=O)CCOCC2	60	90	100	0	100	10	
